The molecules below were run on P388 (assay: Induction of apoptosis in P388D1 cell line).
Type: functional, Mus musculus, DBA/2
Parameters: concentration or dose not given beside the values
`O=C(CCCCCCCCCc1ccccc1)CC(=O)N[C@H]1CCOC1=O` was tested, and the Activity was 14.5%.
`O=C(CCCCCCCc1ccccc1)CC(=O)N[C@H]1CCOC1=O` showed an Activity of 25.2%.
`O=C(CCCCCCCC1CC1)CC(=O)N[C@H]1CCOC1=O` gave an Activity of 38.7%.
For `CCCCCCCCCC(=O)CC(=O)Nc1ccccc1O`, the Activity was 109.6%.
In the case of `O=C(CCCCCC1CC1)CC(=O)N[C@H]1CCOC1=O`, the Activity is reported as 122.9%.
`CCCCCCCCCC(=O)CC(=O)N[C@@H](C)C(=O)OC` was tested, and the Activity was 111.2%.
`CCCCCCCCC(=O)CCC(=O)N[C@H]1CCOC1=O` was tested, and the Activity was 115.6%.
`O=C(CCCCCCCCCCCc1ccccc1)CC(=O)N[C@H]1CCOC1=O` showed an Activity of 12.2%.
`CCCCC(=O)CC(=O)N[C@H]1CCOC1=O` showed an Activity of 111%.
For `CCCC(=O)N[C@H]1CCOC1=O`, the Activity was 100.4%.
For `CCCCCCCC(=O)CCCC(=O)N[C@H]1CCOC1=O`, the Activity was 97.7%.
With `O=C(O)CCC(=O)OCCCCCCCCCC(=O)CC(=O)N[C@H]1CCOC1=O` the Activity was 114%.
`CCCCCCCCCC(=O)CC(=O)N[C@H]1CCCC[C@@H]1O` showed an Activity of 96.2%.
For `CCCCCCCCCC(=O)CC(=O)N[C@@H]1CCOC1=O`, the Activity was 105%.
`CCCCC(=O)N[C@H]1CCOC1=O` gave an Activity of 101.8%.
`O=C(CCCCCc1ccccc1)CC(=O)N[C@H]1CCOC1=O` showed an Activity of 122%.
Molecule `CCCCCCCC(=O)CC(=O)N[C@H]1CCOC1=O` has an Activity of 107.7%.
`CCCCCCCCCCCC(=O)CC(=O)N[C@H]1CCOC1=O` was tested, and the Activity was 14.8%.
`CCCCCCCCCC(=O)CC(=O)N[C@H]1CCOC1=O` gave an Activity of 31.9%.
With `CCCCCCCCCCCC(=O)N[C@H]1CCOC1=O` the Activity was 91.1%.
Molecule `O=C(CCCCCCCCCO)CC(=O)N[C@H]1CCOC1=O` has an Activity of 109.5%.

— ChEMBL document CHEMBL1146944, “Synthesis of Pseudomonas quorum-sensing autoinducer analogs and structural entities required for induction of apoptosis in macrophages” (2006)
